Assay results published in PMC3753754, “Andrographis paniculata Extract and Andrographolide Modulate the Hepatic Drug Metabolism System and Plasma Tolbutamide Concentrations in Rats” (Evidence-based Complementary and Alternative Medicine : eCAM, 2013).
Marks after values point to notes of the source that are not given here.

Experiments:
CYP2D = assay: Dextromethorphan O-deethylation in liver microsomes of treated rats; assay type: in vivo; conditions: rat liver microsomes; oral 2 g/kg APE or 50 mg/kg AND daily for 5 days
Procedure: (§1) Liver was homogenized (1 : 4, w/v) in an ice-cold potassium phosphate buffer (pH 7.4) containing 7.4 mM K2HPO4, 2.6 mM KH2PO4, 1.15% KCl, and 1 mM phenylmethylsulfonyl fluoride (PMSF). Tissue homogenates were centrifuged at 10,000 ×g for 30 min at 4°C. The resulting supernatant was then centrifuged at 105,000 ×g for 1 h at 4°C. The microsomes thus obtained were washed several times to get rid of possible tolbutamide contamination and this can avoid tolbutamide interference of CYP activity, and the microsomes were then suspended in potassium phosphate buffer (pH 7.7) containing 7.5 mM K2HPO4, 14.5 mM KH2PO4, and 1 mM EDTA. […] Metabolites of each CYP enzyme reaction were determined by LC/MS as reported previously. The contents of total CYP and cytochrome b5 were quantified by the method of Omura and Sato [29]. Enzyme activity is expressed as picomoles of metabolite formed per minute per milligram of protein. The NADPH-CYP reductase activity was measured as described by Phillips and Langdon with the use of cytochrome c as the substrate. The microsomal protein concentration was determined by using a Coomassie Plus protein assay kit (Pierce, Rockford, IL, USA).

CYP1A1 = assay: Ethoxyresorufin O-deethylation in liver microsomes of treated rats; assay type: in vivo; conditions: rat liver microsomes; oral 2 g/kg APE or 50 mg/kg AND daily for 5 days
Procedure: as §1

CYP2C6/11 = assay: Hepatic CYP2C6 and CYP2C11 protein expression in high-fat diet-induced obese mice; assay type: in vivo, C57BL/6 mice; conditions: 2 g/kg APE or 50 mg/kg AND daily for 5 days
Procedure: Eleven-month-old high-fat diet-fed (45% of energy from fat; Research Diet Inc., New Brunswick, NJ) C57BL/6 mice were obtained from the National Health Research Institute (Miaoli, Taiwan). Control mice were orally administered 0.5% methyl cellulose (10 mL/kg). […] After the 5th daily dose, the mice were deprived of food overnight. On day 6, a 20 mg/kg oral dose of tolbutamide, as a solution in Cremophor EL/ethanol/water (30/10/60, v/v/v), was administered to each mouse. Thirty minutes later, a 1 g/kg dose of glucose, as a solution in water, was administered orally according to the method described by Zong et al.. Serial blood samples were collected up to 8 h after the glucose dose from each mouse. The animals were then killed by exsanguination and the livers collected.
(§2) Aliquots of microsomal protein (10 μg) were electrophoresed in an SDS-polyacrylamide gel, and proteins were then transferred to polyvinylidene fluoride membranes. After blocking, membranes were hybridized with antibodies to CYP1A1, CYP1A2, CYP2C6, CYP2C11, CYP2D1, CYP2E1, CYP3A1, and CYP3A2.

Cytochrome b5 = Cytochrome b5 content in liver microsomes of treated rats; assay type: in vivo; conditions: rat liver microsomes; oral 2 g/kg APE or 50 mg/kg AND daily for 5 days
Procedure: as §1

Cytochrome P450 = assay: Total CYP content in liver microsomes of treated rats; assay type: in vivo; conditions: rat liver microsomes; oral 2 g/kg APE or 50 mg/kg AND daily for 5 days
Procedure: as §1

[1] = system: UDP-glucuronosyltransferase; assay: Microsomal UGT activity (p-nitrophenol substrate) in liver of treated rats; assay type: in vivo; conditions: rat liver; oral 2 g/kg APE or 50 mg/kg AND daily for 5 days
Procedure: The microsomal UGT activity was determined by using p-nitrophenol as the substrate. The rate of formation of p-nitrophenol glucuronic acid was measured by HPLC/UV [31]. GST activity was determined spectrophotometrically by measuring the formation rate of GSH conjugates.

CYP2E1 = assay: Immunoblot and RT-PCR of hepatic CYP2E1 in treated rats; assay type: in vivo; conditions: rat liver; APE or andrographolide for 5 days
Procedure: as §2
Total RNA in liver samples was extracted by using the Trizol reagent (1 : 20, w/v). […] The sequences for the PCR primers were as follows: for CYP1A1 (forward: 5′-[…]-3′; reverse: 5′-[…]-3′), CYP1A2 (forward: 5′-[…]-3′; reverse: 5′-[…]-3′), CYP2C6 (forward: 5′-[…]-3′; reverse: 5′-[…]-3′), CYP2C11 (forward: 5′-[…]-3′; reverse: 5′-[…]-3′), CYP2D1 (forward: 5′-[…]-3′; reverse: 5′-[…]-3′), CYP2E1 (forward: 5′-[…]-3′; reverse: 5′-[…]-3′), CYP3A1 (forward: 5′-[…]-3′; reverse: 5′-[…]-3′), CYP3A2 (forward: 5′-[…]-3′; reverse: 5′-[…]-3′), and P-glycoprotein (forward: 5′-[…]-3′; reverse: 5′-[…]-3′). The PCR for CYP1A1 was performed as follows: 5 min at 95°C and then 35 cycles of 30 s at 94°C, 30 s at 54°C, and 60 s at 72°C. […] The PCR amplicons were then electrophoresed in 1% agarose gels containing 40 mM Tris/20 mM glacial acetic acid/2 mM EDTA buffer, and the relative densities of the PCR products were quantitated by use of Image Gauge software (Fujifilm, Tokyo, Japan). […]

SMILES: C=C1CC[C@@H]2[C@](C)(CO)[C@H](O)CC[C@@]2(C)[C@@H]1C/C=C1/C(=O)OC[C@H]1O [andrographolide, Andrographolide]
- Dextromethorphan O-deethylase (2D) (CYP2D): 79.1 ± 30.4 pmol/min/mg protein
- Ethoxyresorufin O-deethylase (1A1) (CYP1A1): 66.6 ± 13.5^b pmol/min/mg protein
- Hepatic expression of CYP2C6/11 (CYP2C6/11): induced
- Cytochrome b5 content (Cytochrome b5): 327 ± 79 pmol/mg protein
- Cytochrome P450 content (Cytochrome P450): 674 ± 64^b pmol/mg protein
- UDP-glucuronosyltransferase activity [1]: 21.1 ± 6.5^a nmol/min/mg protein
- CYP2E1 protein or mRNA levels compared with controls (CYP2E1): no changes
